This note sets out measurements from patent EP4810500A1, “IMIDAZOL-2-ONE DERIVATIVE AND USE THEREOF IN MEDICINE” (Haisco Pharmaceutical Group Co., Ltd., priority 2023, dated 2025).

Where two headings read alike, the source gives them in different places. Where only a bound is given, the exact number is not on record here.

The target in series [1] is T1, CYP3A4 (Homo sapiens, UniProt P08684).
T1 construct: from tissue; host or cells: human liver microsomes
The series is described as follows: CYP450 enzyme activity inhibition assay (human liver microsomes). The series is classed as in vitro ADME. On the procedure:
(§1) The purpose of this study was to evaluate the effects of the test compounds on the activities of five isoenzymes (CYP1A2, CYP2C9, CYP2C19, CYP2D6, and CYP3A4) of human liver microsomal cytochrome P450 (CYP) using an in vitro testing system. The specific probe substrates of CYP450 isoenzymes were incubated with human liver microsomes and test compounds of different concentrations, and reduced nicotinamide adenine dinucleotide phosphate (NADPH) was added to initiate the reaction. After the completion of the reaction, the sample was treated and liquid chromatography-tandem mass spectrometry (LC-MS/MS) was used to quantitatively detect metabolites produced by specific substrates. Changes in CYP enzyme activity were determined, and IC50 value was calculated to evaluate the inhibitory potential of the test compound on each CYP enzyme subtype.
For orientation: Liver microsomes are a subcellular fraction often used to study metabolism.

The target of series [2] is T2, CYP2C19 (Homo sapiens, UniProt P33261).
T2 construct: from tissue; host or cells: human liver microsomes
T2 sequence (P33261 whole entry): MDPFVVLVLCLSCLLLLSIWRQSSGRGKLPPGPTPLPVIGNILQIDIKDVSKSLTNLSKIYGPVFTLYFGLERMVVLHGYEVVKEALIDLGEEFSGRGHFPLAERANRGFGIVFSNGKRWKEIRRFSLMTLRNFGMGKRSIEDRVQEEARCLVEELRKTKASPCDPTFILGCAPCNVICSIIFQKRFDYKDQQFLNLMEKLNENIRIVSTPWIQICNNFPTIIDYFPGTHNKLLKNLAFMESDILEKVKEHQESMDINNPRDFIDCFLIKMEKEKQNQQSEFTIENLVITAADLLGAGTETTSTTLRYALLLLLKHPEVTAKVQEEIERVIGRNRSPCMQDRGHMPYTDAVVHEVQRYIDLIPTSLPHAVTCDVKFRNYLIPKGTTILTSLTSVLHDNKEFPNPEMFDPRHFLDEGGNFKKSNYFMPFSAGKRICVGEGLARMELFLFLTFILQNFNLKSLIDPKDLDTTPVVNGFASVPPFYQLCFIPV
The description is as above. It counts as in vitro ADME. On the procedure:
as §1

In series [3] the target is T3, CYP2C9 (Homo sapiens, UniProt P11712).
T3 construct: from tissue; host or cells: human liver microsomes
T3 sequence (P11712 whole entry): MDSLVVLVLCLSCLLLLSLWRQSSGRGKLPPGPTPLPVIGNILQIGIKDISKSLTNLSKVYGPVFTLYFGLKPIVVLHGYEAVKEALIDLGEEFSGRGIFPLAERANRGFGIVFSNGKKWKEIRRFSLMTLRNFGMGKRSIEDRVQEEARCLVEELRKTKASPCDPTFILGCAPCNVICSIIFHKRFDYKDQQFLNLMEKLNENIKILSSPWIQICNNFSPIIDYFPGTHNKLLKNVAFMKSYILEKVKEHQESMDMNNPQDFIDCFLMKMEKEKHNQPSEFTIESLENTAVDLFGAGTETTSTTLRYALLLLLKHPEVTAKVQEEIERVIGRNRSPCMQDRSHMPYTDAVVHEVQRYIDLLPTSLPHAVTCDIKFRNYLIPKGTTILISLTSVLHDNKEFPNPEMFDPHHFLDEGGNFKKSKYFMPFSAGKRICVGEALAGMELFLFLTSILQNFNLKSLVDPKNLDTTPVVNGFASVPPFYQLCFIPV
The description is as above. It counts as in vitro ADME. On the procedure: as §1

Series [4] addresses T4, CYP1A2 (Homo sapiens, UniProt P05177).
T4 construct: from tissue; host or cells: human liver microsomes
T4 sequence (P05177 1-516): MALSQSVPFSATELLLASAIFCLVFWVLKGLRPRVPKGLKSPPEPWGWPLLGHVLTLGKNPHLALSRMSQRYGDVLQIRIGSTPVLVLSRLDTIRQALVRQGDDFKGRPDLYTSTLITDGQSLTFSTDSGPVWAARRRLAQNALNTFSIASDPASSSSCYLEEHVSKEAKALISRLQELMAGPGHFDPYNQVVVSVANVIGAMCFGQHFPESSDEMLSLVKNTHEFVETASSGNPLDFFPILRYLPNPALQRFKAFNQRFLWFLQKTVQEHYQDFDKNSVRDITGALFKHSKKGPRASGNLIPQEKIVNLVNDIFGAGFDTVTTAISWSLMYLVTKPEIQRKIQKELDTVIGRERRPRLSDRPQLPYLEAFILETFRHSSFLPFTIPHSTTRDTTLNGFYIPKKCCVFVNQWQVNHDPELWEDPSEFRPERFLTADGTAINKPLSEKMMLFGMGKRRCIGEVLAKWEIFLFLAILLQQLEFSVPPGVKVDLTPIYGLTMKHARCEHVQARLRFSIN
Described as above. The series is classed as in vitro ADME. On the procedure:
as §1

Series [5] deals with T5, CYP2D6 (Homo sapiens, UniProt P10635).
T5 construct: from tissue; host or cells: human liver microsomes
T5 sequence (P10635 whole entry): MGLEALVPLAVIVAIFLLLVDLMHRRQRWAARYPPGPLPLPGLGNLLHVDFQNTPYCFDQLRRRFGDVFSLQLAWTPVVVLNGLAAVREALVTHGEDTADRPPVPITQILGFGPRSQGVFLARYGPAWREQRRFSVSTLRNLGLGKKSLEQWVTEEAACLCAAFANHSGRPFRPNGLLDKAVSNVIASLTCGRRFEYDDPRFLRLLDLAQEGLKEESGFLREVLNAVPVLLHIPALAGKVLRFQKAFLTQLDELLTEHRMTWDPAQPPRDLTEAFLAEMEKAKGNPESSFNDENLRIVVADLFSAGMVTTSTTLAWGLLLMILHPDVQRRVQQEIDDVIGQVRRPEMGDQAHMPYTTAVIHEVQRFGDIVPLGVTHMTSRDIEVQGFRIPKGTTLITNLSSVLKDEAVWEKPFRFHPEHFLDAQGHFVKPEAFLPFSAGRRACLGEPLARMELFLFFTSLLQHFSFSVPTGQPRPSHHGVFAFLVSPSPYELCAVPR
The series is described as above. The series is classed as in vitro ADME. On the procedure:
as §1

Series [6] has as its target T6, GLP-1R (Homo sapiens, UniProt P43220). The series is described as follows: In vitro activity assay (cAMP HTRF, HEK293-CRE-luc-GLP-1R cells). Particulars: cAMP HTRF 665 nm/620 nm, 1 h incubation. The series is classed as cell-based. Further details: expressed in transfected cells; host or cells: HEK293 (HEK293-CRE-luc-GLP-1R). On the procedure:
HEK293-CRE-luc-GLP-1R cells were seeded into a 384-well cell culture plate (Greiner #781946) at a certain cell density (5 µL/well). 5 µl/well of 2× working solution was added to the 384-well microplate. The microplate was sealed with parafilm and incubated in a 37°C 5% CO2 incubator (Thermo) for 1 h. Subsequently, the detection was performed using the cAMP-GS HIRANGE KIT (PerkinElmer, 62AM6PEB), and detection reagents were prepared according to the kit instruction manual. After the incubation, the detection reagents were added to the 384-well microplate, and the microplate was incubated for 1 h at room temperature in the dark. HTRF signals at 665 nm and 620 nm were then measured using a multimode microplate reader. Data were exported from the microplate reader in Excel format. GraphPad Prism was opened. The logarithm of the sample concentration was calculated. Using the logarithm of concentration as the x-axis and the 665 nm/620 nm ratio as the y-axis, four-parameter logistic fitting was performed to obtain the EC50 value of the curve. Table 1: EC50 of compounds against GLP-1
In general terms: TR-FRET usually uses a lanthanide donor and a delayed reading to cut background.

Series [7] can be described thus: Mouse pharmacokinetic assay. It counts as in vivo, male C57 mice. Particulars: plasma, mice; for bioavailability: intragastric administration 10 mg/kg (intravenous 2.5 mg/kg); for AUC(0-t): intragastric administration 10 mg/kg. On the procedure:
Experimental animals: male C57 mice, 22-25 g, 6 mice/compound.
Experimental design: on the day of the experiment, C57 mice were randomly grouped according to body weight. The animals were fasted with water available for 12 h to 14 h one day before the administration, and were fed 4 h after the administration. Table 2. Administration information
Before and after the administration, 0.06 mL of blood was taken from the orbits under isoflurane anaesthesia and placed in an EDTAK2 centrifuge tube. The blood was centrifuged at 5000 rpm at 4°C for 10 min, and the plasma was collected. The blood collection time points for the intravenous administration group and intragastric administration group were 0, 5 min, 15 min, 30 min, 1 h, 2 h, 4 h, 7 h and 24 h. Before analysis and detection, all samples were stored at -80°C, and the samples were quantitatively analysed by LC-MS/MS. Table 2-1 Pharmacokinetic results of test compounds in mice

Series [8] has as its target T6, GLP-1R. The series can be described thus: Oral glucose tolerance test (OGTT). It counts as in vivo, male C57BL/6-G1p1rem2 (hGLP1R) Smoc mice. Also on record: from tissue; host or cells: whole animal: male C57BL/6-Glp1r em2(hGLP1R) Smoc knock-in mice. Particulars: 3 mg/kg, orally administered; from blood glucose AUC0-2 h after glucose load. On the procedure:
OGTT experiment was performed in male C57BL/6-G1p1rem2 (hGLP1R) Smoc mice to evaluate the hypoglycaemic effect of GLP-1 receptor agonists. The animals were fasted for more than 16 hours and randomly grouped. Tail tip blood was collected and basal fasting blood glucose (FBG) was measured using a blood glucose meter. Mice with FBG in the range of 3.5-6.5 mmol/L were selected and orally administered, and the control group was administered the vehicle. 15 min after administration, each group of animals was intragastrically administered with 25% glucose solution. Blood glucose levels were measured in tail tip blood collected 15 min, 30 min, 45 min, 1 h, and 2 h after glucose administration. 0-2 h blood glucose AUC0-2 h was calculated using the Graphpad Prism software, and the inhibition rate was further calculated. [formula]

Series [9] can be described thus: Monkey pharmacokinetic assay. The series is classed as in vivo, male cynomolgus monkeys. Particulars: cynomolgus monkey, monkeys; for bioavailability: intragastric administration 5 mg/kg (intravenous 1 mg/kg); for AUC(0-t): intragastric administration 5 mg/kg. On the procedure: Experimental animals: male cynomolgus monkeys, 3-5 kg, 3-6 years old, 5 monkeys/compound, purchased from Hainan New Source Biotechnology Co., Ltd.
Experimental method: On the day of the experiment, five monkeys were randomly grouped according to body weight, with two in the intravenous administration group and three in the intragastric administration group. The animals were fasted with water available for 14 h to 18 h one day before the administration, and were fed 4 h after the administration. Table 3. Administration information

One may read the IC50 as the midpoint of a concentration-inhibition curve. For orientation: EC50 means the concentration giving half of the maximal effect. What is called bioavailability is dose-corrected exposure relative to a reference, in per cent. As usually defined, the AUC(0-t) is the area under the concentration-time curve up to a stated or last time point.

T1 sequence (P08684 whole entry): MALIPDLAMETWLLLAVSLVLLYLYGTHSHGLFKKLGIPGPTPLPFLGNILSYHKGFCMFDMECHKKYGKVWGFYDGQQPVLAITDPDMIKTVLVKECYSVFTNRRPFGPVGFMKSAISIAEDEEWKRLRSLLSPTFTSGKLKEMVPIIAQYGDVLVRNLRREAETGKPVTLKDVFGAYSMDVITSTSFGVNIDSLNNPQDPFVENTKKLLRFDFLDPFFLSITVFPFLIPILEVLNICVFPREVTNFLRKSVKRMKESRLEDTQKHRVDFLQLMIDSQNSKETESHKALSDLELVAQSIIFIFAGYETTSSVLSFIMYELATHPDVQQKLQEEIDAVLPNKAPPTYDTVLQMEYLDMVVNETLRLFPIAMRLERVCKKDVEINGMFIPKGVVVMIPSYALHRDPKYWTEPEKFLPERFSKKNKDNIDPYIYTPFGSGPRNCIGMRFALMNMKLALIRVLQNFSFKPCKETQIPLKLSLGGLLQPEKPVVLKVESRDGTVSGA
T6 sequence (P43220 24-463): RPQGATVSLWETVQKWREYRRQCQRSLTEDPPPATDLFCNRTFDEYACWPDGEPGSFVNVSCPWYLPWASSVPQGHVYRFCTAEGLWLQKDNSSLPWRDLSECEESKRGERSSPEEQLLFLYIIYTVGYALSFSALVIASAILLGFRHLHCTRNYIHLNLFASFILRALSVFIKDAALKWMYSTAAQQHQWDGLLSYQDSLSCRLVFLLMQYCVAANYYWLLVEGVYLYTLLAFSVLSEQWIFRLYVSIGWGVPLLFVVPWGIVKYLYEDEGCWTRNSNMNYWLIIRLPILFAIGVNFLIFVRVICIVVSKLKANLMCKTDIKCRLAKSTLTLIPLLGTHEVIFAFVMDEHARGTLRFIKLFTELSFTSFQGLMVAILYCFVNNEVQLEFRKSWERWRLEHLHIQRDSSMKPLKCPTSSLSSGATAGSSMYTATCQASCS

Consider `Cc1cc(-n2nc3c(c2-n2ccn(-c4ccc5c(c4)N(C)C(=O)C54CCOCC4)c2=O)[C@H](C)N(C(=O)c2cc4cc(C5CCOC(C)(C)C5)sc4n2C2(c4noc(=O)[nH]4)C[C@@H]2C)CC3)cc(C)c1F` (single isomer, unassigned) [Compound 9], for which the IC50 in series [1] (human, microsomes) was greater than 30 µM; in [2] (human, microsomes) it was greater than 30 µM; in series [3] (human, microsomes), 3.31 µM; in [4] (human, microsomes), greater than 30 µM; in [5] (human, microsomes), greater than 30 µM. Further, the EC50 in series [6] was less than 0.001 µM.
As for `Cc1cc(-n2nc3c(c2-n2ccn(-c4ccc5c(c4)N(C)C(=O)C54CCOCC4)c2=O)[C@H](C)N(C(=O)c2cc4cc([C@H]5CCOC(C)(C)C5)ccc4n2[C@@]2(c4noc(=O)[nH]4)C[C@@H]2C)CC3)cc(C)c1F` [Compound 2], the bioavailability in series [7] (mouse, po) was 70.3%; in series [9] (in vivo, po), 32.6%. Further, the AUC(0-t) in series [7] (mouse, po) is 23200 ng·h/mL; in series [9] (po, plasma), 11600 ng·h/mL. For the same molecule, in [6], the EC50 is less than 0.001 µM. The “blood glucose inhibition rate” value in series [8] is reported as -25.5%.
Turning to `[2H]C([2H])([2H])N1C(=O)C2(CCOCC2)c2ccc(-n3ccn(-c4c5c(nn4-c4cc(C)c(F)c(C)c4)CCN(C(=O)c4cc6cc([C@H]7CCOC(C)(C)C7)ccc6n4[C@@]4(c6noc(=O)[nH]6)C[C@@H]4C)[C@H]5C)c3=O)cc21` [Compound 3], the IC50 in series [1] (human, microsomes) was greater than 30 µM; in series [2] (human, microsomes), greater than 30 µM; in series [3] (human, microsomes) it was greater than 30 µM; in series [4] (human, microsomes) it was greater than 30 µM; in [5] (human, microsomes), greater than 30 µM. Besides, the EC50 in series [6] was less than 0.001 µM. Further, the “blood glucose inhibition rate” value in series [8] was -37.1%.
For the molecule `[2H]C([2H])([2H])N1C(=O)C2(CCOCC2)c2ccc(-n3ccn(-c4c5c(nn4-c4ccc(F)c(C(=C)F)c4)CCN(C(=O)c4cc6cc([C@H]7CCOC(C)(C)C7)ccc6n4[C@@]4(c6noc(=O)[nH]6)C[C@@H]4C)[C@H]5C)c3=O)cc21` [Compound 53], the EC50 in series [6] is less than 0.001 µM.
Take `C=C(F)c1cc(-n2nc3c(c2-n2ccn(-c4ccc5c(c4F)N(C)C(=O)C54CCOCC4)c2=O)[C@H](C)N(C(=O)c2cc4cc([C@H]5CCOC(C)(C)C5)ccc4n2[C@@]2(c4noc(=O)[nH]4)C[C@@H]2C)CC3)ccc1F` [Compound 54]: in series [7] (mouse, po), the bioavailability worked out at 33.8% and the AUC(0-t) was found to be 12100 ng·h/mL. Besides, the EC50 in series [6] is less than 0.001 µM.
The like results for `[2H]C([2H])([2H])N1C(=O)C2(CCOCC2)c2ccc(-n3ccn(-c4c5c(nn4-c4ccc(F)c(C(=C)F)c4)CCN(C(=O)c4cc6cc([C@H]7CCOC(C)(C)C7)ccc6n4[C@@]4(c6noc(=O)[nH]6)C[C@@H]4C)[C@H]5C)c3=O)c(F)c21` [Compound 55] were, in that order, 25.1%, 8670 ng·h/mL and less than 0.001 µM.
In series [6], `Cc1cc(-n2nc3c(c2-n2ccn(-c4ccc5c(c4F)N(C)C(=O)C54CCOCC4)c2=O)[C@H](C)N(C(=O)c2cc4cc(C5CCOCC5)ccc4n2[C@@]2(c4noc(=O)[nH]4)C[C@@H]2C)CC3)cc(C)c1F` [Compound 56] yielded an EC50 of less than 0.001 µM.
In series [6], `[2H]C([2H])([2H])N1C(=O)C2(CCOCC2)c2ccc(-n3ccn(-c4c5c(nn4-c4cc(C)c(F)c(C)c4)CCN(C(=O)c4cc6cc(C7CCOCC7)ccc6n4[C@@]4(c6noc(=O)[nH]6)C[C@@H]4C)[C@H]5C)c3=O)c(F)c21` [Compound 57] had an EC50 of less than 0.001 µM.
Take `[2H]C([2H])([2H])N1C(=O)C2(CCOCC2)c2ccc(-n3ccn(-c4c5c(nn4-c4cc(C)c(F)c(C)c4)CCN(C(=O)c4cc6cc(C7CCOCC7)ccc6n4[C@@]4(c6noc(=O)[nH]6)C[C@@H]4C)[C@H]5C)c3=O)cc21` [Compound 58]: the EC50 in series [6] is less than 0.001 µM.
Take `Cc1cc(-n2nc3c(c2-n2ccn(-c4ccc5c(cnn5C)c4F)c2=O)[C@H](C)N(C(=O)c2cc4cc([C@H]5CCOC(C)(C)C5)ccc4n2[C@@]2(c4noc(=O)[nH]4)C[C@@H]2C)CC3)cc(C)c1F` [Orforglipron, reference compound]: the bioavailability in series [7] (male, C57, mouse, oral) stood at 7.93%; in series [9] (male, plasma, oral) it was 1.93%. The AUC(0-t) in [7] (male, C57, mouse, po) amounted to 3260 ng·h/mL; in series [9] (male, po, plasma), 584 ng·h/mL. Besides, the IC50 was greater than 30 µM in [1] (human liver microsomes, NADPH, read-out: IC50 (µM) CYP3A4); greater than 30 µM in [2] (human liver microsomes, NADPH, read-out: IC50 (µM) CYP2C19); 0.905 µM in series [3] (human liver microsomes, NADPH, read-out: IC50 (µM) CYP2C9); greater than 30 µM in [4] (human liver microsomes, NADPH, read-out: IC50 (µM) CYP1A2); greater than 30 µM in series [5] (human liver microsomes, NADPH, read-out: IC50 (µM) CYP2D6). In series [8], the “blood glucose inhibition rate” value is recorded as -9.8%.
